# Measured values: patent publication US20200207872A1, “METHODS FOR TREATING INFLAMMATION AND RELATED DISEASES AND DISORDERS BY INHIBITING ALPHA PROTEIN KINASE 1” (Shanghai Yao Yuan Biotechnology Co., Ltd., priority 2017, published 2020)
# How the values were obtained:
# ALPK1 = ALPK1 (Homo sapiens, UniProt Q96QP1); test: Screening of small molecule libraries for inhibitory activity against ALPK1 (binding, kinase and cell-based cytokine secretion assays); format: biochemical; details: performance in the binding and kinase assays and in at least two cell-based assays
# Chain of ALPK1 (Q96QP1 whole entry): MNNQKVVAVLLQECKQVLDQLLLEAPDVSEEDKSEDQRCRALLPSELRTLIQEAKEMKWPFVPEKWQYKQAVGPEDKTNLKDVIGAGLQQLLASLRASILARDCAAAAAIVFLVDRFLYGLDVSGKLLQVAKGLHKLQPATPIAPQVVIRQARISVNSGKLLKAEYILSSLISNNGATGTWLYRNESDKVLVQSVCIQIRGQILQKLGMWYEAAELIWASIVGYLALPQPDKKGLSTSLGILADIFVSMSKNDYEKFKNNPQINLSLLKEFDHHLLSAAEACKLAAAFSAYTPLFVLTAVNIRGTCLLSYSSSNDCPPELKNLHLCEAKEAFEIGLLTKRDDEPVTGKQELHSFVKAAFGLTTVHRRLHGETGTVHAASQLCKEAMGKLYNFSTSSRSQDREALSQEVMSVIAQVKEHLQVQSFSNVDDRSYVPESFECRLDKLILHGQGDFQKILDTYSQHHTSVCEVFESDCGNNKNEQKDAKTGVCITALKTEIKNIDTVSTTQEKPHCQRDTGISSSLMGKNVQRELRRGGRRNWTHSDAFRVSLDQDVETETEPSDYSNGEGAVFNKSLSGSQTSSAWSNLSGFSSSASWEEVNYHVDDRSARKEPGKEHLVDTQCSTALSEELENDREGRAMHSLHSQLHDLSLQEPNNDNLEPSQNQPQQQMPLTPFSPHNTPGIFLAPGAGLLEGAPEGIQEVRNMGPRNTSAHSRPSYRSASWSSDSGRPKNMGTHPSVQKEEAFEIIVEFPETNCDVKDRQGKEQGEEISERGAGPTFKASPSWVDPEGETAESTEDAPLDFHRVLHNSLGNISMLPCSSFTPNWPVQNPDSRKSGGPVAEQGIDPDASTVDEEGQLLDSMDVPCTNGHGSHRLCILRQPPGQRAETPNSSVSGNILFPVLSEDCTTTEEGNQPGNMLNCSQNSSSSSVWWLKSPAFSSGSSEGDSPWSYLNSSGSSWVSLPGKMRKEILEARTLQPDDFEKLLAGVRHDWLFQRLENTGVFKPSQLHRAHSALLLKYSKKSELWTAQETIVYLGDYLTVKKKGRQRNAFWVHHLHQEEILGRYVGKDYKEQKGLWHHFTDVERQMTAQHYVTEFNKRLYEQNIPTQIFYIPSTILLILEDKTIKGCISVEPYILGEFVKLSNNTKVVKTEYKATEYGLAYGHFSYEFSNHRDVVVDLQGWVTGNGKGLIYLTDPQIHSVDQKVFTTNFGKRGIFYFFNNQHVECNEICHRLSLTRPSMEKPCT
# Source text: An ALPK1 inhibitor was identified by screening libraries of small molecules for inhibitory activity against ALPK1. Various assays were used to screen the libraries including binding assays, kinases assays, and cell-based assays for cytokine secretion.
# [1] = system: DSS-induced colitis model; test: DSS-induced colitis model, body weight; format: in vivo; details: female wild type FVC mice, 3% DSS day 0 to day 5, then 1 mg/kg IP daily in DMSO vs DMSO alone
# Procedure: Mice were treated with 3% DSS from day 0 to day 5 then changed to drinking water and injected IP with either MI6C (1 mg/kg) dissolved in DMSO (n=6) or DMSO alone (n=5) daily.
# The ability of MI6 to ameliorate inflammation in the DSS-induced colitis model was evaluated as follows. 8 weeks old female wild type FVC mice were treated with 3% DSS (Sodium salt, MW 40K-50K, from Affymetrix) from day 0 to day 5. The mice were then changed to drinking water. Mice were injected intraperitoneally (IP) with either MI6 (1 mg/kg) dissolved in DMSO (n=6) or DMSO alone (n=5) daily. Animals were weighed daily.
compound,measurement,setting,value
"CCCCCCCCCCCCCCCC[n+]1ccn(Cc2ccccc2)c1C [MI6, 1-benzyl-3-hexadecyl-2-methyl-1H-imidazol-3-ium]",inhibitory activity against ALPK1,ALPK1,identified as an ALPK1 inhibitor
same,weight gain (change in weight relative to day 0) / recovery,[1],improved weight gain
same,weight gain (change in weight relative to day 0) / recovery,[1]; listed as MI6C,improves recovery
